Laboratory results as given in PubChem BioAssay (NCI).
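Briefly, cells in 96-well plates were exposed to five compound concentrations for 48 h, and endpoints were estimated by linear interpolation. TGI: concentration producing complete growth inhibition.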

Assays:
Test in all cases: growth of human tumour cells (NCI), 48 h
[1] = system: OVCAR-3 ovarian
[2] = system: DMS 114 small cell lung
[3] = system: LOX IMVI melanoma
[4] = system: TK-10 renal
[5] = system: SNB-78 CNS
[6] = system: MCF7 breast
[7] = system: UACC-62 melanoma
[8] = system: DU-145 prostate
[9] = system: PC-3 prostate
[10] = system: NCI-H460 lung

`CN(C)CCC(=O)N1C/C(=C/c2ccccc2)C(=O)/C(=C\c2ccccc2)C1` showed a TGI [1] of 7.05 µM, a TGI [2] of 4.1 µM and a TGI [3] of 1.27 µM. It also gave a TGI [4] of 17.9 µM, a TGI [5] of 16.1 µM and a TGI [6] of 2.19 µM. For the same molecule, the TGI [7] was 3.77 µM, the TGI [8] was 18.5 µM and the TGI [9] was 4.2 µM. The TGI [10] was 6.47 µM.
With `Cc1cc(N(CCOS(C)(=O)=O)CCOS(C)(=O)=O)ccc1C=Nc1ccc(-c2nc(Cc3ccccc3)sc2C)cc1` the TGI [1] was 19.6 µM, the TGI [2] was 27.7 µM and the TGI [3] was 20.2 µM. The TGI [4] was 33.9 µM, the TGI [5] was 81.2 µM and the TGI [6] was 49.7 µM. The TGI [7] was 16.7 µM, the TGI [8] was 11.7 µM and the TGI [9] was 22.1 µM. The TGI [10] was 5.03 µM.
